The source of these data is PubChem BioAssay (NCI).

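Growth conditions: 96-well plates. Treatment: test compound, 48 hours, 5 concentrations. Analysis: linear interpolation between bracketing concentrations; unreached endpoints set to highest concentration. Abbreviation: GI50, concentration required for 50% inhibition of growth. At the TGI there is no net growth.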

Test in all cases: growth of human tumour cells (NCI), 48 h
Experiment [1] concerns SNB-19 CNS.
Experiment [2] deals with HCT-15 colon.
The subject of experiment [3] is T-47D breast.
The test system of experiment [4] is HCC-2998 colon.
The test system of experiment [5] is NCI-H226 lung.
In experiment [6] the test system is SF-268 CNS.
Experiment [7] deals with NCI-H460 lung.
Experiment [8] has as its system M14 melanoma.

For `N=C(N)SCc1ccc([N+](=O)[O-])cc1[N+](=O)[O-]`, the GI50 is 26 µM in experiment [1]; 5.01 µM in experiment [2]; 2.59 µM in experiment [3]; 6.05 µM in experiment [4]; 25.3 µM in experiment [5]; 13.9 µM in experiment [6]. Further, the GI50 in experiment [7] is 12.7 µM; in experiment [8], 12.8 µM. Besides, the TGI in experiment [1] was 79 µM; in experiment [2] it was 19.4 µM; in experiment [3], 11.4 µM; in experiment [4], 18.1 µM; in experiment [5] it was 62.4 µM; in experiment [6] it was 69.8 µM. The values for the TGI in experiment [7] and in experiment [8] were 32.7 µM and 29.4 µM, respectively.

Regarding `CN(C)c1ccc(/C=N/NC(=O)c2cccc3ccccc23)c(Cl)c1`, the GI50 in experiment [1] is 15.5 µM; in experiment [2], 0.727 µM; in experiment [3], 2.95 µM; in experiment [4] it was 38.5 µM; in experiment [5] it was 12.3 µM; in experiment [6] it was 9.1 µM. Moreover, the results for the GI50 in experiment [7] and in experiment [8] were 1.01 µM and 0.763 µM, respectively. In addition, the TGI in experiment [1], in experiment [2], in experiment [3], in experiment [4], in experiment [5] and in experiment [6] was > 100 µM in each case. In addition, the TGI in experiment [7] and in experiment [8] was > 100 µM each time.

As to `COc1ccc(-c2nc(-c3nc4ccc(C(F)(F)F)cc4[nH]3)c3ccccn23)cc1`, the GI50 was > 100 µM in experiment [1]; > 100 µM in experiment [2]; 5.33 µM in experiment [3]; 51.8 µM in experiment [4]; > 100 µM in experiment [6]; 9.73 µM in experiment [7]. The GI50 in experiment [8] is 83.1 µM. The TGI in experiment [1], in experiment [2], in experiment [3], in experiment [4], in experiment [6] and in experiment [7] was > 100 µM throughout. In addition, in experiment [8], the TGI was > 100 µM.

On to `COc1cc(NC(C)CCCN)c2ncccc2c1Sc1ccc(Cl)cc1` (centres undefined), for which the GI50 in experiment [1] was 1.8 µM; in experiment [2] it was 1.89 µM; in experiment [3], 1.77 µM; in experiment [4], 1.75 µM; in experiment [6], 2.43 µM; in experiment [7], 1.8 µM. Moreover, in experiment [8], the GI50 is 1.77 µM. The TGI in experiment [1] turned out to be 3.46 µM; in experiment [2], 3.67 µM; in experiment [3], 3.34 µM; in experiment [4], 3.17 µM; in experiment [6], 6.61 µM; in experiment [7], 3.22 µM. Also, in experiment [8], the TGI is 3.34 µM.

Turning to `COc1cc2ccc(CC(N)=O)cc2cc1OC`, the TGI in experiment [1], in experiment [2], in experiment [5], in experiment [6] and in experiment [8] was > 100 µM in each case.

Turning to `CN(C)CCNc1nc2ccccc2c2occc12`, the GI50 in experiment [1] was 71.7 µM; in experiment [2] it was 30.1 µM; in experiment [3], > 100 µM; in experiment [4], 36 µM; in experiment [6], 46.6 µM; in experiment [7] it was 31.7 µM. In experiment [8], the GI50 is 28.8 µM. In addition, the TGI in experiment [1] is > 100 µM; in experiment [2], > 100 µM; in experiment [3], > 100 µM; in experiment [4], 89.5 µM; in experiment [6] it was > 100 µM; in experiment [7], > 100 µM. Also, the TGI in experiment [8] came to 68.5 µM.

As to `COc1ccc(-c2nnc(Nc3nc(O)c(C4=c5cc(F)ccc5=NC4=O)s3)o2)cc1`, the GI50 in experiment [1] was 48.2 µM; in experiment [2] it was 44.7 µM; in experiment [3], 93.2 µM; in experiment [4] it was 84.3 µM; in experiment [5], 46.3 µM; in experiment [6], 67.7 µM. Further, the GI50 in experiment [7] was 34.2 µM. Moreover, the TGI in experiment [1], in experiment [2], in experiment [3], in experiment [4], in experiment [5] and in experiment [6] was > 100 µM in each case. For the same compound, the TGI in experiment [7] is > 100 µM.

Turning to `Cn1c(C(C)(C)OC(=O)Oc2ccccc2)cnc1[N+](=O)[O-]`, the TGI in experiment [1], in experiment [2], in experiment [3], in experiment [5], in experiment [6] and in experiment [7] was > 100 µM throughout. Moreover, the TGI in experiment [8] was > 100 µM.

With `COc1ccc(C#CC2=C(c3cc(OC)c(OC)c(OC)c3)C(=O)OC2)cc1`, the GI50 in experiment [1] was 5.98 µM; in experiment [2] it was 1.99 µM; in experiment [5] it was 7.88 µM; in experiment [6], 2.23 µM; in experiment [7] it was 6.65 µM; in experiment [8], > 50 µM. Moreover, the TGI in experiment [1] was > 50 µM; in experiment [2], > 50 µM; in experiment [5] it was 27.1 µM; in experiment [6], > 50 µM; in experiment [7] it was > 50 µM; in experiment [8], > 50 µM.

Regarding `CCCCN1CCN(c2ccc3nc(-c4ccc5nc(-c6ccc(OCC)c(OCC)c6)[nH]c5c4)[nH]c3c2)CC1`, the GI50 in experiment [1] was 1.22 µM; in experiment [2] it was 1.56 µM; in experiment [3] it was 1.36 µM; in experiment [5], 1.29 µM; in experiment [6], 2.66 µM; in experiment [7], 0.533 µM. For the same compound, the GI50 in experiment [8] was 0.314 µM. Besides, the TGI in experiment [1] turned out to be 2.61 µM; in experiment [2], 3.32 µM; in experiment [3], 7.88 µM; in experiment [5], 3.95 µM; in experiment [6], 22 µM; in experiment [7] it was 1.86 µM. In addition, the TGI in experiment [8] stood at 1.55 µM.

In the case of `O=C(Sc1sc(=S)sc1SC(=O)c1ccccc1)c1ccccc1`, the TGI in experiment [1], in experiment [2], in experiment [4], in experiment [6] and in experiment [8] was > 100 µM in each case.

With `O=C(COc1ccc(-c2nc3cc(Cl)c(Cl)cc3[nH]2)cc1)N=Nc1c(O)[nH]c2ccccc12`, the GI50 in experiment [1] is 1.78 µM; in experiment [2], > 100 µM; in experiment [4], 1.35 µM; in experiment [8] it was 4.17 µM. The TGI in experiment [1] is 6.62 µM; in experiment [2], > 100 µM; in experiment [4], 3.75 µM; in experiment [8], > 100 µM.
